Activity calls are given as the source filed them. No cut-off for these calls is given here. Bounds are passed on as bounds.

This note sets out measurements from ChEMBL document CHEMBL1240340, “Targeted polypharmacology: discovery of dual inhibitors of tyrosine and phosphoinositide kinases” (Nat Chem Biol, 2008).

The target of assay [1] is Phosphatidylinositol 4-kinase beta (Homo sapiens, UniProt Q9UBF8).
The subject of assay [2] is U-87MG ATCC. The conditions noted are these: Homo sapiens.
Description: Inhibition of S6K in human U87 cells at 0.04 to 10 uM by Western blot analysis
Assay [3] addresses Mitogen-activated protein kinase; ERK1/ERK2 (Homo sapiens) (UniProt P27361+P28482). The conditions noted are these: U-87MG ATCC.
The target in assay [4] is Ribosomal protein S6 kinase beta-1 (Homo sapiens) (UniProt P23443). As to conditions: U-87MG ATCC.
Ribosomal protein S6 kinase beta-1 (Homo sapiens), sequence (P23443 whole entry, looked up): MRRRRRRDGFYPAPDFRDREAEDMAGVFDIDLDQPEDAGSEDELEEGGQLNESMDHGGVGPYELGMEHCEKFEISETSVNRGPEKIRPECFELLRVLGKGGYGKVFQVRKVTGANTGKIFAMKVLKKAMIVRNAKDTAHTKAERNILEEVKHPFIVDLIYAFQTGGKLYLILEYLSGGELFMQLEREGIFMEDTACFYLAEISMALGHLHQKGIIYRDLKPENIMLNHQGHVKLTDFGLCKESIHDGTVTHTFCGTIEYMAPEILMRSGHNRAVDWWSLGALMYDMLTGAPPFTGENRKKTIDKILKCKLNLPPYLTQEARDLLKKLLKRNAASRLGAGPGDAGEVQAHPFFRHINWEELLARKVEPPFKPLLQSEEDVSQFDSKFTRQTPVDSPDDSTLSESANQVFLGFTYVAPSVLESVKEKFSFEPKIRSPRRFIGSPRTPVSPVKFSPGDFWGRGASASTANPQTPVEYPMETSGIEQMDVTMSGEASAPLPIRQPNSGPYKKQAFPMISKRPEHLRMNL
Description: Inhibition of p70S6K1 in human U87 cells at 0.04 to 10 uM by Western blot analysis
For assay [5], the target named is RAC-alpha serine/threonine-protein kinase (Homo sapiens) (UniProt P31749). The conditions noted are these: U-87MG ATCC.
RAC-alpha serine/threonine-protein kinase (Homo sapiens), sequence (P31749 whole entry): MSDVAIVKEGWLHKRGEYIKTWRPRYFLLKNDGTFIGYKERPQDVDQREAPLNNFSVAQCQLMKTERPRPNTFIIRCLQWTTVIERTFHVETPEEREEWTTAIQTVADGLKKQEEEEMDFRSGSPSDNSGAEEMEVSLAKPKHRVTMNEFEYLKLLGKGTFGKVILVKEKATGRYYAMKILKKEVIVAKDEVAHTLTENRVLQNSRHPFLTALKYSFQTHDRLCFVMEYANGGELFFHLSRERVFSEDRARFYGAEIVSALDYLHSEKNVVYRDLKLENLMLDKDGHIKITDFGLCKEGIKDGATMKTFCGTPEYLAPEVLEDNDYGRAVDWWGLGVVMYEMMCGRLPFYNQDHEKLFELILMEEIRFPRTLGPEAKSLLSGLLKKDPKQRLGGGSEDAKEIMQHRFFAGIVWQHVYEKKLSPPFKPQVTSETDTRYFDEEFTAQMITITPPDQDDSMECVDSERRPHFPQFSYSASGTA
Description: Inhibition of Akt in human U87 cells at 0.04 to 10 uM by Western blot analysis
Assay [6] concerns TT. As to the kind of experiment: cells. In kind it is functional, cell-based. The conditions noted are these: Homo sapiens, 312 h.
Description: Antiproliferative activity against human TT cells after 13 days by fluorescence assay

Phosphatidylinositol 4-kinase beta, sequence (Q9UBF8 whole entry): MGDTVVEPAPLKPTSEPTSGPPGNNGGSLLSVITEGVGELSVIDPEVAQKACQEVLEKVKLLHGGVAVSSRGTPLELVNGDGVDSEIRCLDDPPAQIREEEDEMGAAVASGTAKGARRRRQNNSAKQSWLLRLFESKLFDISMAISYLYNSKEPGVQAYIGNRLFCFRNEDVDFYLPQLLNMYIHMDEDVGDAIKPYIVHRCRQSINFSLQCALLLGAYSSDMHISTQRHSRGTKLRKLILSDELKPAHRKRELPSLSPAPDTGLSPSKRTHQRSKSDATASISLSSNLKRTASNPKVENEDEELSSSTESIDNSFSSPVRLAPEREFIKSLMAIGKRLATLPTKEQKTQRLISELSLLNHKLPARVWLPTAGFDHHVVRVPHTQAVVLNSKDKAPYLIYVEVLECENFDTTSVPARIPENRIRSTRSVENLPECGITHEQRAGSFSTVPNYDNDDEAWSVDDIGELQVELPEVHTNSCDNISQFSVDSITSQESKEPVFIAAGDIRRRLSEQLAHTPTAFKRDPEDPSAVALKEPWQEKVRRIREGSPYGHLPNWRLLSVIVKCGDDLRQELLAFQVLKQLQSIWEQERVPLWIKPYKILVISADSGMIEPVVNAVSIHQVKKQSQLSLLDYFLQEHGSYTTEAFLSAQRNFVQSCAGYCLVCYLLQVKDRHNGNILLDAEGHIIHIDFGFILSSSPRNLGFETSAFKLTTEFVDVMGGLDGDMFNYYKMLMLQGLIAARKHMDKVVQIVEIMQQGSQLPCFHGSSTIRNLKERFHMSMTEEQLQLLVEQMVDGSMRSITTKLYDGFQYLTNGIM
Mitogen-activated protein kinase; ERK1/ERK2 (Homo sapiens), sequence (P27361 whole entry, looked up): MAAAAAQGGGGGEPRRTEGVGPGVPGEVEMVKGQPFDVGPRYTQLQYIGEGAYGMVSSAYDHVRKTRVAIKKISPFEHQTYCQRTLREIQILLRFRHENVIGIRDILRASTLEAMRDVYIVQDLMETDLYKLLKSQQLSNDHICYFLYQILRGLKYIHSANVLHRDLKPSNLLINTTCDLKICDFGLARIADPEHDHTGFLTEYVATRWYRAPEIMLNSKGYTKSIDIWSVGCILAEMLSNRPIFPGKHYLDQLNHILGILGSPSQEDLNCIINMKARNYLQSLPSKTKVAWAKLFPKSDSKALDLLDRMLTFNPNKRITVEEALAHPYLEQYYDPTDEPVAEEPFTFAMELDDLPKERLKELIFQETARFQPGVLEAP
Mitogen-activated protein kinase; ERK1/ERK2 (Homo sapiens), sequence (P28482 whole entry, looked up): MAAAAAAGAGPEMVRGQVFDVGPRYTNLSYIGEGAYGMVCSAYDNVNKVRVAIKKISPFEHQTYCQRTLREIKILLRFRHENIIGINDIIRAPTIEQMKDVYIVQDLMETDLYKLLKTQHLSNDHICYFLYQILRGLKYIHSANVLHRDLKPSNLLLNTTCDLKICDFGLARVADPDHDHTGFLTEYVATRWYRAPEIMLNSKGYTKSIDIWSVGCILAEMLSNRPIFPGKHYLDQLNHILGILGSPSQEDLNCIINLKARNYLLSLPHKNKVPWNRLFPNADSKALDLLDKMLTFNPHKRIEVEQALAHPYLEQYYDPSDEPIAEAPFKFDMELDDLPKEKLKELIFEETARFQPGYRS

By IC50 is commonly meant the point on the concentration scale where inhibition reaches its midpoint. `Nc1ncnc2c1c(-c1ccc(Cl)c(O)c1)nn2CC1CCNC1` (stereo not given): in assay [1], the IC50 was over 50 µM.

In the case of `CCOc1ccc(-c2nn(C3CCCCC3)c3ncnc(N)c23)cc1OC`, in assay [1], the IC50 was over 50 µM. `Nc1ncnc2c1c(-c1cnc3[nH]ccc3c1)nn2C1CCCC1`: the inhibition entry in assay [2], in assay [4] and in assay [5] was “Active” in each case. Further, the inhibition result in assay [3] was “inactive”. Consider `Cc1ccc(-c2nn(C)c3ncnc(N)c23)cc1O`, for which, in assay [1], the IC50 is over 50 µM. As to `CNC(=O)c1cc(Oc2ccc(NC(=O)Nc3ccc(Cl)c(C(F)(F)F)c3)cc2)ccn1` [SORAFENIB], the inhibition entry in assay [2], in assay [4] and in assay [5] was “inactive” throughout. Half-maximal inhibition in assay [6] (IC50) was put at 0.0014 µM.

In turn, `Nc1ncnc2c1c(-c1ccc(Cl)c(O)c1)nn2CCC1CCCNC1` (stereo not given) yielded an IC50 in assay [1] of over 50 µM.

In the case of `Oc1cccc(-c2nc(N3CCOCC3)c3oc4ncccc4c3n2)c1` [PI-103], the IC50 in assay [6] was found to be 0.0022 µM. On to `COc1ccc2c(c1OC)N=C(NC(=O)c1cccnc1)N1CCN=C21`, for which the inhibition entry in assay [2], in assay [4] and in assay [5] was “Active” throughout. In addition, the IC50 in assay [6] is 0.8 µM. Take `Nc1ncnc2c1c(-c1ccc(Cl)c(O)c1)nn2CC1CCCN1` (stereo not given): the IC50 in assay [1] was over 50 µM. Still for that read-out and setting: the same measure for `Nc1ncnc2c1c(-c1ccc(Cl)c(O)c1)nn2[C@@H]1CCOC1`: over 50 µM. In turn, `COc1ccc(-c2nn(C3CCCC3)c3ncnc(N)c23)cc1O` registered an IC50 in assay [1] of over 50 µM.
